Test results published in patent US9914730B2, “Azaquinazoline inhibitors of Atypical protein Kinase C” (Ignyta, Inc., priority 2012, dated 2018).

What follows are compounds tested against T1, full-length human PKCι (Homo sapiens, UniProt P41743) (assay: PKCι IC50 IMAP assay, full-length PKCι at 150 μM ATP). Conditions: read-out: IC50 in IMAP assay against full length PKCi at 150 μM ATP.
T1 construct: Recombinant, full-length human PKCι expressed in Sf21 insect cells is also commercially available; purchased; host or cells: Sf21 insect cells
T1 sequence (P41743 1-596): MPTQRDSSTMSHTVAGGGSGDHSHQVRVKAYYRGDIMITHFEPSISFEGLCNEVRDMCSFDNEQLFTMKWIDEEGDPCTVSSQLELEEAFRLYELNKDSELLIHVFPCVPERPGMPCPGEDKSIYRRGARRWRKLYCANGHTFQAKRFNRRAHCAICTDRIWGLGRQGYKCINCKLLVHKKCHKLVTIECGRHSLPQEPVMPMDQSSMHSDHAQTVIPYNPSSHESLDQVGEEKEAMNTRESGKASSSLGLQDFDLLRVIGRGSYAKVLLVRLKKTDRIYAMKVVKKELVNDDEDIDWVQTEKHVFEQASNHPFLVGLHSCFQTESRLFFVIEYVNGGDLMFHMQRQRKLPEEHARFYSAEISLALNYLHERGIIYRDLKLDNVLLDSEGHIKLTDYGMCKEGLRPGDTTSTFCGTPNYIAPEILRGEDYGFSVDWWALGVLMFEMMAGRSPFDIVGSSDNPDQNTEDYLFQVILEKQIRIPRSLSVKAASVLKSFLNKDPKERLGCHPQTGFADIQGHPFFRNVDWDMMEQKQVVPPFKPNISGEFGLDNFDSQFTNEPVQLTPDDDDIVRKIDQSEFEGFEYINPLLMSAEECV
Assay type: biochemical
Summary of the method: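 IC50 from IMAP FP (ex 485/em 530 nm) after 60 min room-temperature reaction in pH 7.5 tris buffer with 9 mM MgCl2 and 0.9 mM DTT. Enzyme: full-length Sf21-expressed PKCι (~15 pM); ATP 150 μM, five times KM^APP; FAM-labelled peptide 100 nM; DMSO 4%.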
`Fc1ncccc1Nc1cc(-c2nc(N3CCNCC3)c3c(C4CC4)cncc3n2)ccn1` [Example 495, [4-(5-cyclopropyl-4-piperazin-1-yl-pyrido[3,4-d]pyrimidin-2-yl)-pyridin-2-yl]-(2-fluoro-pyridin-3-yl)-amine] was tested, and the IC50 was < 100 nM.
`CN1CCN(c2cccc(Nc3cc(-c4nc(N5CC(O)C5)c5c(C6CC6)cncc5n4)ccn3)c2)CC1` [Example 777, 1-(5-Cyclopropyl-2-{2-[3-(4-methyl-piperazin-1-yl)-phenylamino]-pyridin-4-yl}-pyrido[3,4-d]pyrimidin-4-yl)-azetidin-3-ol] was tested, and the IC50 was 100 to 1000 nM.
In the case of `c1cc(-c2nc(N3CCNCC3)c3c(C4CC4)cncc3n2)cc(NC2CCCCC2)n1` [Example 282, Cyclohexyl-[4-(5-cyclopropyl-4-piperazin-1-yl-pyrido[3,4-d]pyrimidin-2-yl)-pyridin-2-yl]-amine], the IC50 is reported as < 100 nM.
`Cc1c2ccc(Nc3cc(-c4nc(N5CCNCC5)c5c(C6CC6)cncc5n4)ccn3)cc2nn1C` [Example 493, [4-(5-Cyclopropyl-4-piperazin-1-yl-pyrido[3,4-d]pyrimidin-2-yl)-pyridin-2-yl]-(2,3-dimethyl-2H-indazol-6-yl)-amine] was tested, and the IC50 was < 100 nM.
With `CNc1nc(-c2ccnc(Nc3ccc(OCCN4CCCC4)cc3)c2)nc2cncc(OC)c12` [Example 501, (5-Methoxy-2-{2-[4-(2-pyrrolidin-1-yl-ethoxy)-phenylamino]-pyridin-4-yl}-pyrido[3,4-d]pyrimidin-4-yl)-methyl-amine] the IC50 was 10000 to 40000 nM.
In the case of `COc1ccnc(Nc2cc(-c3nc(N4CCNCC4)c4c(OC)cncc4n3)ccn2)c1` [Example 401, [4-(5-Methoxy-4-piperazin-1-yl-pyrido[3,4-d]pyrimidin-2-yl)-pyridin-2-yl]-(4-methoxy-pyridin-2-yl)-amine], the IC50 is reported as < 100 nM.
With `Clc1ccc(Nc2cc(-c3nc(N[C@@H]4CCNC4)c4ccncc4n3)ccn2)nc1` [Example 346, {2-[2-(5-Chloro-pyridin-2-ylamino)-pyridin-4-yl]-pyrido[3,4-d]pyrimidin-4-yl}-(R)-pyrrolidin-3-yl-amine] the IC50 was < 100 nM.
With `CNCCNC(=O)C1CCN(c2nc(-c3ccnc(Nc4c(F)cccc4F)c3)nc3cncc(C4CC4)c23)CC1` [Example 744, 1-{5-Cyclopropyl-2-[2-(2,6-difluoro-phenylamino)-pyridin-4-yl]-pyrido[3,4-d]pyrimidin-4-yl}-piperidine-4-carboxylic acid (2-methylamino-ethyl)-amide] the IC50 was < 100 nM.
`N#Cc1ccnc(Nc2cc(-c3nc(N4CCNCC4)c4ccncc4n3)ccn2)c1` [Example 342, 2-[4-(4-piperazin-1-yl-pyrido[3,4-d]pyrimidin-2-yl)-pyridin-2-ylamino]-isonicotinonitrile] showed an IC50 of 100 to 1000 nM.
In the case of `CS(=O)(=O)CCN1CCN(c2nc(-c3ccnc(Nc4ccccc4)c3)nc3cncc(C4CC4)c23)CC1` [Example 663, (4-{5-Cyclopropyl-4-[4-(2-methanesulfonyl-ethyl)-piperazin-1-yl]-pyrido[3,4-d]pyrimidin-2-yl}-pyridin-2-yl)-phenyl-amine], the IC50 is reported as 100 to 1000 nM.
With `CS(=O)(=O)CCN1CCN(c2nc(-c3ccnc(Nc4ccc(F)cc4)c3)nc3cncc(C4CC4)c23)CC1` [Example 664, (4-{5-Cyclopropyl-4-[4-(2-methanesulfonyl-ethyl)-piperazin-1-yl]-pyrido[3,4-d]pyrimidin-2-yl}-pyridin-2-yl)-(4-fluoro-phenyl)-amine] the IC50 was 1000 to 10000 nM.
For `Fc1ccc(Nc2cc(-c3nc(N4CCNCC4)c4c(C5CC5)cncc4n3)ccn2)c(F)n1` [Example 671, [4-(5-Cyclopropyl-4-piperazin-1-yl-pyrido[3,4-d]pyrimidin-2-yl)-pyridin-2-yl]-(2,6-difluoro-pyridin-3-yl)-amine], the IC50 was < 100 nM.
With `COc1cncc2nc(-c3ccnc(Nc4ccccc4)c3)nc(N3CCNC(C(F)(F)F)C3)c12` (centres unmarked) [Example 231, {4-[5-Methoxy-4-(3-trifluoromethyl-piperazin-1-yl)-pyrido[3,4-d]pyrimidin-2-yl]-pyridin-2-yl}-phenyl-amine] the IC50 was 10000 to 40000 nM.
In the case of `COc1cncc2nc(-c3ccnc(Nc4ccc(N5CCN(C)CC5)nc4)c3)nc(N[C@@H]3CCNC3)c12` [Example 331, (5-Methoxy-2-{2-[6-(4-methyl-piperazin-1-yl)-pyridin-3-ylamino]-pyridin-4-yl}-pyrido[3,4-d]pyrimidin-4-yl)-(R)-pyrrolidin-3-yl-amine], the IC50 is reported as < 100 nM.
In the case of `N#Cc1cccc(Nc2cc(-c3nc(N4CC[C@H](O)[C@H](O)C4)c4c(C5CC5)cncc4n3)ccn2)c1` [Example 711, 3-{4-[5-Cyclopropyl-4-((3R,4S)-3,4-dihydroxy-piperidin-1-yl)-pyrido[3,4-d]pyrimidin-2-yl]-pyridin-2-ylamino}-benzonitrile], the IC50 is reported as 100 to 1000 nM.
For `COc1cncc2nc(-c3ccnc(Nc4cncc(C)c4)c3)nc(N3CCNCC3)c12` [Example 416, [4-(5-Methoxy-4-piperazin-1-yl-pyrido[3,4-d]pyrimidin-2-yl)-pyridin-2-yl]-(5-methyl-pyridin-3-yl)-amine], the IC50 was < 100 nM.
For `CN(C)C(=O)c1ccc(Nc2cc(-c3nc(N4CCNCC4)c4c(C5CC5)cncc4n3)ccn2)cc1` [Example 2003, 4-[4-(5-Cyclopropyl-4-piperazin-1-yl-pyrido[3,4-d]pyrimidin-2-yl)-pyridin-2-ylamino]-N,N-dimethyl-benzamide], the IC50 was < 100 nM.
For `CN1CCN(c2cccc(Nc3cc(-c4nc(N5CCC(O)C(O)C5)c5c(C6CC6)cncc5n4)ccn3)c2)CC1` (single isomer, unassigned) [Example 752, (3R,4S or 3R,4S)-1-(5-Cyclopropyl-2-{2-[3-(4-methyl-piperazin-1-yl)-phenylamino]-pyridin-4-yl}-pyrido[3,4-d]pyrimidin-4-yl)-piperidine-3,4-diol], the IC50 was < 100 nM.
For `c1ccc(C[C@H]2CN(c3nc(N4CCOCC4)nc4cncc(C5CC5)c34)CCN2)cc1` [Example 1017, 4-((S)-3-Benzyl-piperazin-1-yl)-5-cyclopropyl-2-morpholin-4-yl-pyrido[3,4-d]pyrimidine], the IC50 was < 100 nM.
For `N[C@H](CNc1nc(N2CCOCC2)nc2cnccc12)Cc1ccccc1` [Example 1014, (S)—N^1-(2-Morpholin-4-yl-pyrido[3,4-d]pyrimidin-4-yl)-3-phenyl-propane-1,2-diamine], the IC50 was 100 to 1000 nM.
Compound `COc1cncc2nc(-c3ccncc3)nc(N3CCNC(C(F)(F)F)C3)c12` (centres unmarked) [Example 43, 1-[5-methoxy-2-(pyridin-4-yl)pyrido[3,4-d]-pyrimidin-4-yl]-3-(trifluoromethyl)-piperazine] has an IC50 of 1000 to 10000 nM.
For `CN(CC1CCNCC1)c1nc(-c2ccnc3[nH]c(C(F)(F)F)cc23)nc2cncc(C3CC3)c12` [Example 2139, [5-Cyclopropyl-2-(2-trilfuoromethyl-1H-pyrrolo[2,3-b]pyridin-4-yl)-pyrido[3,4-d]pyrimidin-4-yl]-methyl-piperidin-4-ylmethyl-amine], the IC50 was < 100 nM.
In the case of `Fc1cc(F)c(Nc2cc(-c3nc(NC4CCNC4)c4c(C5CC5)cncc4n3)ccn2)nc1F` (centres unmarked) [Example 2020, {5-Cyclopropyl-2-[2-(3,5,6-trifluoro-pyridin-2-ylamino)-pyridin-4-yl]-pyrido[3,4-d]pyrimidin-4-yl}-pyrrolidin-3-yl-amine], the IC50 is reported as < 100 nM.
`CC(C)[C@H]1CN(c2nc(-c3ccncc3)nc3cnccc23)CCN1` [Example 62, (3S)-3-(propan-2-yl)-1-[2-(pyridin-4-yl)-pyrido[3,4-d]-pyrimidin-4-yl]-piperazine] showed an IC50 of 1000 to 10000 nM.
With `O[C@@H]1Cc2ccccc2[C@@H]1Nc1cc(-c2nc(N3CCNCC3)c3c(C4CC4)cncc3n2)ccn1` [Example 2140, (1S,2R)-1-[4-(5-Cyclopropyl-4-piperazin-1-yl-pyrido[3,4-d]pyrimidin-2-yl)-pyridin-2-ylamino]-indan-2-ol] the IC50 was < 100 nM.
Work on `CCNC(=O)C1CCN(c2nc(-c3ccnc(Nc4c(F)cccc4F)c3)nc3cncc(C4CC4)c23)CC1` [Example 723, 1-{5-Cyclopropyl-2-[2-(2,6-difluoro-phenylamino)-pyridin-4-yl]-pyrido[3,4-d]pyrimidin-4-yl}-piperidine-4-carboxylic acid ethylamide] yielded an IC50 of 1000 to 10000 nM.
In the case of `N#CC[C@H]1CN(c2nc(-c3ccnc4[nH]ccc34)nc3cncc(C4CC4)c23)CCN1` [Example 1221, {(S)-4-[5-Cyclopropyl-2-(1H-pyrrolo[2,3-b]pyridin-4-yl)-pyrido[3,4-d]pyrimidin-4-yl]-piperazin-2-yl}-acetonitrile], the IC50 is reported as < 100 nM.
Compound `c1cc2c(N[C@@H]3CCNC3)nc(N3CCOCC3)nc2cn1` [Example 1011, (2-Morpholin-4-yl-pyrido[3,4-d]pyrimidin-4-yl)-(R)-pyrrolidin-3-yl-amine] has an IC50 of 1000 to 10000 nM.
Compound `O=S1(=O)CCN(c2nc(-c3ccnc4[nH]c(C(F)(F)F)cc34)nc3cncc(C4CC4)c23)CC1` [Example 1245, 5-Cyclopropyl-4-(1,1-dioxo-1λ^6-thiomorpholin-4-yl)-2-(2-trifluoromethyl-1H-pyrrolo[2,3-b]pyridin-4-yl)-pyrido[3,4-d]pyrimidine] has an IC50 of 10000 to 40000 nM.
